Patent publication US8652440B2, “Methods for diagnosing diseases and evaluating treatments therefor using PET” (The Trustees of Columbia University in the City of New York, priority 2007, dated 2014)
Where two headings read alike, the source gives them in different places.

Target: central M2 cholinergic receptors (Homo sapiens, UniProt P08172)
Details: mean of 11 subjects; for K1 (rate constant for transfer from plasma to the tissue) / VT (total distribution volume) / K2 (tissue clearance rate constant): 1TKA
Text: Synapse 49:150-156 (2003). […] Carson R E, Kiesewetter D O, Jagoda E, Der M G, Herscovitch P, Eckelman W C, Muscarinic cholinergic receptor measurements with [^18F]FP-TZTP: control and competition studies. […] J Nucl Med 40:30P (1999).
Step 1: To calculate group mean parameter values that can be used for computer simulation analysis, ROI TACs were fitted by one-tissue kinetic analysis “1TKA” using individual metabolite-corrected plasma input functions. The mean 1TKA parameter values from 11 subjects were then used to generate noise-free TAC data as described below in Step 3.
Step 2: ROI TAC percent noise was calculated based on deviations from 1TKA fitting (100×SD/mean) for the latter portion of the TAC (60 to 120 min) and the mean percent noise over these 11 subjects was calculated (Table 2).

Chain of central M2 cholinergic receptors (P08172 whole entry): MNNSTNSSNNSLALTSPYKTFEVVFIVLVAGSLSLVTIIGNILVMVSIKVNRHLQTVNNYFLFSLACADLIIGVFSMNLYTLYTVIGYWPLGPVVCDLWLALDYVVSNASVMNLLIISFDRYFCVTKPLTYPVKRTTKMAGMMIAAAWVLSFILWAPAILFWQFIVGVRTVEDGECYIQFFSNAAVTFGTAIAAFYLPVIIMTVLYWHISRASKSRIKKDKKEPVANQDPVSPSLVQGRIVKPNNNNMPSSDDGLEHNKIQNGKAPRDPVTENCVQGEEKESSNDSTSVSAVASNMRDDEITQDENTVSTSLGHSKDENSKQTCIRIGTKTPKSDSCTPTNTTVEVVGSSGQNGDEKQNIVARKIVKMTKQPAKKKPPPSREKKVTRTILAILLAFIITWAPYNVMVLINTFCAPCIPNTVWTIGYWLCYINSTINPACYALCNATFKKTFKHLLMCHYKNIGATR

For `CN1CCC=C(c2nsnc2SCCC[18F])C1` [[^18F]FP-TZTP, 3-(3-(3-[18F]Fluropropyl)thio-1,2,5-thiadiazol-4-yl)-1,2,5,6 tetrahydro-1-methylpyridine], the “K1 (rate constant for transfer from plasma to the tissue)” value (cerebellum (input region, K'1)) was 0.466 mL/min/cm^3, the “VT (total distribution volume)” value (cerebellum (input region, V'T)) was 43 mL/cm^3 and the “K2 (tissue clearance rate constant)” value (cerebellum (input region, k'2)) was 0.0110 min⁻¹. For the same molecule, the “k2/k′2” value (thalamus k2 relative to cerebellum k′2) was 1.60, the “K1 (rate constant for transfer from plasma to the tissue)” value (thalamus) was 0.506 mL/min/cm^3 and the “K2 (tissue clearance rate constant)” value (thalamus) was 0.0176 min⁻¹. The “VT (total distribution volume)” value (thalamus) was 29 mL/cm^3.
